Data taken from patent US20130196934A1, “COMPOSITION FOR PERINATAL AND NEONATAL STROKE” (priority 2010, published 2013).

Test system: red blood cell (RBC)
Assay: Cell-based antioxidant protection in erythrocytes (CAP-e) assay
Details: human RBC, AAPH; biphasic dose response; FIG. 2
Text: As a model cell type, red blood cell (RBC) was used. This is an inert cell type, in contrast to other cell types such as PMN cells as described in section 2, where pro-inflammatory compounds may induce the reactive oxidative burst, or anti-inflammatory compounds may perform cellular signaling and change the behavior of the PMN cell, at doses many times below levels of detection for antioxidants. This assay was developed particularly to be able to assess antioxidants from complex natural products in a cell-based system. Human RBC were washed repeatedly physiological saline, and then exposed to the test products. During the incubation with the test products, any antioxidant compounds able to cross the cell membrane will enter the interior of the RBC. Then the RBC are washed to remove compounds that were not absorbed by the cells, loaded with the DCF-DA dye, which turns fluorescent upon exposure to reactive oxygen species. Oxidation was triggered by addition of the peroxyl free radical generator AAPH. The fluorescence intensity was evaluated. The low fluorescence intensity of untreated control cells served as a baseline, and RBC treated with AAPH alone served as a positive control for maximum oxidative damage.

In the case of `O=C[C@H](O)[C@H](O)[C@H](O)CO` [ribose, Ribose], the “antioxidant protection of erythrocytes from oxidative damage” value was “protected the erythrocytes”.
